Like-named read-outs stand apart in the source and are kept apart here.
Experiments:
androgen receptor (AR) = biological target: T1, androgen receptor (AR) (Homo sapiens, UniProt P10275, T878A); test: eGFP cellular AR transcription assay; assay type: cell-based
T1 construct: stably transfected eGFP-expressing LNCaP human prostate cancer cells (LN-ARR2PB-eGFP) containing an androgen responsive probasin-derived promoter; endogenous in cells; host or cells: LNCaP (LN-ARR2PB-eGFP)
T1 sequence (P10275 1-920 T878A): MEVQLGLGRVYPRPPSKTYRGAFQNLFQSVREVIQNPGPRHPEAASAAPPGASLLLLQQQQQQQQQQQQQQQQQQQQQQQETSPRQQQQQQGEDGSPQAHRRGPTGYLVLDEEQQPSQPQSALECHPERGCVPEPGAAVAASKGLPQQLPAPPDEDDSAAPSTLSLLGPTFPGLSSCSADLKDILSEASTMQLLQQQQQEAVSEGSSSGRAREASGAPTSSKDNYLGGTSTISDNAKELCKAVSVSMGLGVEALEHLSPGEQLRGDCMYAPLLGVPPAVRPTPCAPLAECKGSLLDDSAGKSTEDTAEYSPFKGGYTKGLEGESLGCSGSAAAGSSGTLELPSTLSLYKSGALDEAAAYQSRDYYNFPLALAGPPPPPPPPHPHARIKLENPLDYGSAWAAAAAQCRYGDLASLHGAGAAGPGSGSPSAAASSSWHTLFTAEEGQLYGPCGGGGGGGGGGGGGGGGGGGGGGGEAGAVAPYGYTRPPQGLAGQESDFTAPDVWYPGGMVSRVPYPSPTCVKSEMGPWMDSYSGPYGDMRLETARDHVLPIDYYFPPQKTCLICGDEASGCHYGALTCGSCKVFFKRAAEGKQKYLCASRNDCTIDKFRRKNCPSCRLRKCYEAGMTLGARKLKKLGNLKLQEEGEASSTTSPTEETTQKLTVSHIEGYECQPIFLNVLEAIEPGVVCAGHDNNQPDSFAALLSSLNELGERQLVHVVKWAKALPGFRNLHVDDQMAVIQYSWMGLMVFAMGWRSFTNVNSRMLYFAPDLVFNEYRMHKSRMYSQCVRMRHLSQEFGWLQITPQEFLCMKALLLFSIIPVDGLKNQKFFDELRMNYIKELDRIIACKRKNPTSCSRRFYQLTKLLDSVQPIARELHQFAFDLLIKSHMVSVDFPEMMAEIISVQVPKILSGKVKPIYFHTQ
Method in brief: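 AR transcriptional activity is read as eGFP expression from a probasin-derived androgen-responsive promoter. Compound titrated 0-100 μM in the presence of 0.1 nM R1881; 35,000 cells/well.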

PSA = test: Prostate Surface Antigen (PSA) assay, PSA excreted into the media; assay type: cell-based, human; conditions: same plates as eGFP assay; for IC50: Homo sapiens, 72 h
Protocol: The evaluation of PSA excreted into the media was performed in parallel to the eGFP assay using the same plates (see above description). After the cells were incubated for 3 days 150 μl of the media was taken from each well, and added to 150 μl of PBS.

[1] = LN-ARR2PBeGFP LNCaP cells, 0.1 nM R1881, 3 days incubation, read-out: eGFP IC50
[2] = PSA excreted into media, 3 days incubation, read-out: PSA IC50
[3] = LN-ARR2PBeGFP LNCaP cells, 0.1 nM R1881, 3 days incubation
[4] = PSA excreted into media, 3 days incubation
[5] = LN-ARR2PB-eGFP LNCaP cells, 0.1 nM R1881, 3 days, 0-100 μM compound, read-out: IC50 (eGFP)
[6] = media after 3 days, read-out: IC50 (PSA)

| IC50 (androgen receptor (AR); [1]) | IC50 (PSA; [2]) | Structure (SMILES) | eGFP IC50 (androgen receptor (AR); [3]) | PSA IC50 (PSA; [4]) | also measured |
| --- | --- | --- | --- | --- | --- |
| 166 nM | 99 nM | Cc1cc(-c2c[nH]c3c(C)cccc23)nc2ccccc12 [Compound 13594] | – | – | – |
| 1300 nM | 1590 nM | CN1c2ccccc2C[C@@H]1c1c[nH]c2ccccc12 [Compound 13164-B] | – | – | – |
| – | – | Cc1cc(C)c2[nH]cc(-c3ccc4c(C#N)cccc4n3)c2c1 [Compound 13608] | Inactive | Inactive | – |
| – | – | Cc1c(F)ccc2c(-c3ccc4c(C#N)cccc4n3)c[nH]c12 [Compound 13609] | Inactive | Inactive | – |
| – | – | O=[N+]([O-])c1cccc2c(-c3ccc(Br)cc3)c[nH]c12 [13 738] | – | – | IC50 (androgen receptor (AR); [5]): 83 nM; IC50 (PSA; [6]): 62 nM |
| – | – | Cc1cccc2c(-c3nc4ccccc4cc3O)c[nH]c12 [Compound 13661] | Inactive | Inactive | – |
| 3100 nM | 7090 nM | CC1(C)c2ccccc2N(Cc2ccc(O)cc2)C1c1c[nH]c2ccccc12 (centres unmarked) [Compound 13525] | – | – | – |
| – | – | Cc1cccc2c(-c3ccc4ocnc4c3)c[nH]c12 [13 759] | – | – | IC50 (androgen receptor (AR); [5]): 300 nM; IC50 (PSA; [6]): 270 nM |
| 11500 nM | 1740 nM | Fc1c(Cl)ccc2c(-c3ccc4ccccc4n3)c[nH]c12 [Compound 13613] | – | – | – |
| 60 nM | 140 nM | c1ccc2nc(-c3c[nH]c4ccccc34)ccc2c1 [Compound 13562] | – | – | – |
| 2600 nM | 1910 nM | Brc1ccc2[nH]cc(-c3ccc4ccccc4n3)c2c1 [Compound 13683] | – | – | – |
| 400 nM | 260 nM | CC1(C)c2ccccc2NC1c1c[nH]c2cc(Cl)ccc12 (centres unmarked) [Compound 13521] | – | – | – |
| – | – | Clc1cccc2nc(-c3c[nH]c4c(Cl)cccc34)ccc12 [Compound 13748] | Inactive | Inactive | – |
| – | – | Cc1ccc2ccc(-n3ccc4cccc(C)c43)nc2c1 [Compound 13649] | Inactive | Inactive | – |
| – | – | Cc1cc(F)cc2c(-c3cc(C#N)c4ccccc4n3)c[nH]c12 [Compound 13657] | Inactive | Inactive | – |
| 2850 nM | 2210 nM | Cc1ccc2ccc(-c3c[nH]c4c(C)cccc34)nc2c1 [Compound 13658] | – | – | – |
| 70 nM | 67 nM | Fc1ccc2ccc(-c3c[nH]c4c(Cl)cccc34)nc2c1 [Compound 13694] | – | – | – |
| 210 nM | 140 nM | O=[N+]([O-])c1cccc2c(-c3ccc4ccccc4c3)c[nH]c12 [Compound 13702] | – | – | – |
| – | – | Fc1ccc(-c2c[nH]c3ncccc23)cc1 [13 740] | – | – | IC50 (androgen receptor (AR); [5]): 120 nM; IC50 (PSA; [6]): 120 nM |
| – | – | c1ccc2cc(-c3c[nH]c4ccncc34)ccc2c1 [13 685] | – | – | IC50 (eGFP) (androgen receptor (AR); LN-ARR2PB-eGFP LNCaP cells, 0.1 nM R1881, 3 days, 0-100 μM compound): IC50 (eGFP) = Inactive; IC50 (PSA) (PSA; media after 3 days): IC50 (PSA) = Inactive |
| – | – | Fc1ccc(Cl)c2[nH]ccc12 [Compound 13726] | Inactive | Inactive | – |
| – | – | Fc1cc2c(-c3ccc4c(F)cccc4n3)c[nH]c2c(F)c1F [Compound 13751] | Inactive | Inactive | – |
| – | – | Cc1cccc2c(-c3ccc4c(Br)ccc(Br)c4n3)c[nH]c12 [Compound 13679] | Inactive | Inactive | – |
| 1700 nM | 2570 nM | Cc1cccc2c(C3Nc4ccccc4C34CCCCC4)c[nH]c12 (centres unmarked) [Compound 13549] | – | – | – |
| – | – | c1ccc2ncc(-c3n[nH]c4ccccc34)cc2c1 [13 684] | – | – | IC50 (androgen receptor (AR); [5]): 1400 nM; IC50 (PSA; [6]): 6610 nM |
| – | – | Cc1c(F)ccc2c(-c3ccc4cccc(F)c4n3)c[nH]c12 [Compound 13635] | Inactive | Inactive | – |
| 490 nM | 330 nM | Cc1cc(F)cc2c(-c3cnc4ccc(F)cc4n3)c[nH]c12 [Compound 13717] | – | – | – |

| IC50 (androgen receptor (AR); [1]) | IC50 (PSA; [2]) | Structure (SMILES) | eGFP IC50 (androgen receptor (AR); [3]) | PSA IC50 (PSA; [4]) | also measured |
| --- | --- | --- | --- | --- | --- |
| – | – | Cc1cccc2c(C3=Nc4ccccc4CN3)c[nH]c12 [Compound 13604] | Inactive | Inactive | – |
| 600 nM | 430 nM | Fc1ccc2ccc(-c3c[nH]c4cc(F)c(F)cc34)nc2c1 [Compound 13630] | – | – | – |
| – | – | COc1cccc2c(-c3cc(C)c4ccccc4n3)c[nH]c12 [13 554] | – | – | IC50 (androgen receptor (AR); [5]): 600 nM; IC50 (PSA; [6]): 670 nM |
| 75 nM | 51 nM | c1ccc2cc(-c3n[nH]c4ccccc34)ccc2c1 [Compound 13674] | – | – | – |
| – | – | Fc1cc(F)c2[nH]cc(-c3ccc4c(Cl)cccc4n3)c2c1 [Compound 13672] | Inactive | Inactive | – |
| – | – | c1ccc2ncc(-c3c[nH]c4ccncc34)cc2c1 [Compound 13637] | Inactive | Inactive | – |
| – | – | Fc1ccc2cc[nH]c2c1Cl [Compound 13725] | Inactive | Inactive | – |
| 110 nM | 76 nM | Clc1cccc(/N=N/c2c[nH]c3ccccc23)c1 [Compound 13226] | – | – | – |
| – | – | c1ccc(-c2ccc(-c3c[nH]c4cccnc34)cc2)cc1 [13 735] | – | – | IC50 (androgen receptor (AR); [5]): 3860 nM; IC50 (PSA; [6]): 1430 nM |
| – | – | COc1ccc(Br)cc1-c1c[nH]c2ccccc12 [Compound 13638] | Inactive | Inactive | – |
| – | – | c1ccc2c(c1)NC(c1c[nH]c3ccccc13)C21CCCCC1 (centres unmarked) [13 534] | – | – | IC50 (androgen receptor (AR); [5]): 800 nM; IC50 (PSA; [6]): 1250 nM |
| 480 nM | 240 nM | c1ccc2c(c1)C[C@H](c1c[nH]c3ccccc13)N2 [Compound 13163-B] | – | – | – |
| 500 nM | 940 nM | CC1(C)C(c2c[nH]c3c(O)cccc23)=Nc2ccccc21 [Compound 13541] | – | – | – |
| 2400 nM | 2400 nM | Cc1[nH]c2ccccc2c1SCc1ccccc1F [Compound 13411] | – | – | – |
| – | – | Cc1cc(C)c2[nH]cc(-c3ccc4cc(F)ccc4n3)c2c1 [Compound 13599] | Inactive | Inactive | – |
| 1200 nM | 2030 nM | Fc1ccc(CSc2c[nH]c3ccccc23)cc1 [Compound 13410] | – | – | – |
| 1500 nM | 1870 nM | Cc1ccc2[nH]cc(C3Nc4ccccc4C3(C)C)c2c1 (centres unmarked) [Compound 13535] | – | – | – |
| – | – | Fc1cccc2nc(-c3c[nH]c4c(Cl)cccc34)ccc12 [Compound 13712] | Inactive | Inactive | – |
| 42 nM | 85 nM | Cc1cccc2c(-c3ccc4ccccc4c3)c[nH]c12 [Compound 13591] | – | – | – |
| 2100 nM | 110 nM | c1ccc2[nH]c(-c3c[nH]c4ccccc34)cc2c1 [Compound 13127] | – | – | – |
| – | – | O=[N+]([O-])c1cccc2nc(-c3c[nH]c4ccccc34)ccc12 [Compound 13689] | Inactive | Inactive | – |
| 400 nM | 310 nM | NC(=O)c1ccccc1/N=C/c1c[nH]c2ccccc12 [Compound 13427] | – | – | – |
| 2200 nM | 1010 nM | C(=C\c1c[nH]c2ccccc12)/c1ccccc1 [Compound 13235] | – | – | – |
| – | – | COC(=O)c1cccc2c(-c3ccc(Br)cc3)c[nH]c12 [13 736] | – | – | IC50 (androgen receptor (AR); [5]): 620 nM; IC50 (PSA; [6]): 680 nM |
| – | – | c1ccc2c(-c3nn[nH]n3)c[nH]c2c1 [Compound 13701] | Inactive | Inactive | – |
| 1660 nM | 610 nM | Cc1cccc2c(-c3cccnc3)c[nH]c12 [Compound 13655] | – | – | – |

| Structure (SMILES) | IC50 (androgen receptor (AR); [1]) | IC50 (PSA; [2]) | eGFP IC50 (androgen receptor (AR); [3]) | PSA IC50 (PSA; [4]) | also measured |
| --- | --- | --- | --- | --- | --- |
| Brc1cccc2c(-c3ccc4ccccc4n3)c[nH]c12 [Compound 13582] | 52 nM | 41 nM | – | – | – |
| N#C/C(=C\c1ccc(F)cc1)c1c[nH]c2ccccc12 [Compound 13436] | – | 400 nM | – | – | IC50 (androgen receptor (AR); eGFP IC50, LN-ARR2PBeGFP LNCaP cells, 0.1 nM R1881, 3 days incubation): 600 nM |
